According to paper PMC6714992 (Clinical and Applied Thrombosis/Hemostasis, 2019):

Molecular target: factor Xa (Bos taurus, UniProt P00743)
Test: kinetic amidolytic
Assay type: biochemical

Sequence of factor Xa (P00743 41-180): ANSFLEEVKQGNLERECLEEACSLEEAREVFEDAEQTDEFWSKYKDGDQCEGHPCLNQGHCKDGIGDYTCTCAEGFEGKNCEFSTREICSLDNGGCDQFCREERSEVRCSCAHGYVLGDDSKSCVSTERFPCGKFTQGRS
Sequence of factor Xa (P00743 234-492): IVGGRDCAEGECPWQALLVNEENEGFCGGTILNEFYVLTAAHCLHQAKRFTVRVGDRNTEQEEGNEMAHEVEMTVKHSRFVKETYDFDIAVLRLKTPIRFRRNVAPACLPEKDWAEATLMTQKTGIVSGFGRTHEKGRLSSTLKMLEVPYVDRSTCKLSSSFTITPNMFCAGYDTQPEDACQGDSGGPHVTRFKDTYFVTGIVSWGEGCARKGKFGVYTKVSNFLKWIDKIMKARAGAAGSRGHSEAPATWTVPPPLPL

IC50: > 2.88 µM
SMILES: COc1ccc(NC(=O)c2ccc(C(=N)N(C)C)cc2)c(C(=O)Nc2ccc(Cl)cn2)c1 [betrixaban]
